“And” between values parts separate entries of the source, which are not always exact repeats. Equal values may be shown once. Read-outs that look alike come from different tables or passages of the source.
Tests used:
[1] = Plasma pharmacokinetics after a single oral dose in healthy male subjects; format: in vivo, human; conditions: single oral dose of 250 mg; for Cmax: male, human, po, 250 mg
Method: The skin accumulation found in this study was compared to plasma levels of Compound 1 determined in a previous study in healthy human volunteers. Six healthy male subjects were given a single oral dose of 250 mg Compound 1, and plasma samples were collected pre-dose and at 0.25, 0.5, 0.75, 1, 1.5, 2, 2.5, 3, 4, 6, 8, 10, 12, 18, 24, 30, 36, 48, 72 and 96 hours after dosing.

HSP-90 = conditions: read-out: IC50 for inhibition of HSP-90; cited from earlier work
[2] = test system: subjects with moderate to severe hidradenitis suppurativa; assay: Placebo controlled clinical study of Compound 1 in hidradenitis suppurativa patients; format: in vivo, human
Method: A placebo controlled clinical study was conducted to assess the efficacy of Compound 1 in HS patients. The study design is summarized below.
Fifteen patients were entered into the study and randomly assigned to the Compound 1 arm (10 patients) or the placebo arm (5 patients). The study was open to male or female subjects aged 18 years or older with hidradenitis suppurativa with minimum 5 inflammatory nodules in at least 2 distinct anatomic areas. The study was conducted in Denmark.
The study duration was approximately 24 weeks, including a 4-week screening phase, a 16-week treatment phase, and a 4-week observational follow-up phase to assess for hidradenitis suppurativa relapse and flare.
The primary objective of the study was to evaluate the efficacy of Compound 1 in subjects with moderate to severe hidradenitis suppurativa. The secondary objectives were to (1) evaluate the efficacy of Compound 1 on other clinical disease activity parameters in subject with moderate to severe hidradenitis suppurativa and (2) to evaluate the safety of Compound 1 in subjects with moderate to severe hidradenitis suppurativa.
The primary efficacy endpoint of the study was the percentage of subjects achieving Hidradenitis Suppurativa Clinical Response 50 (HiSCR-50) score at Week 16. The secondary efficacy endpoints were: • (1) the percentage of subjects with Hidradenitis Suppurativa Physician's Global Assessment (HS-PGA) scores of clear or minimal at Weeks 2, 4, 8, 12, 14, 16, and 20; • (2) the percentage of subjects achieving HiSCR-50, HiSCR-75, and HISCR-90 at Weeks 2, 4, 8, 12, 14, 16, and 20; • (3) changes from baseline in the Dermatology Life Quality Index (DLQI) total score at Weeks 4, 8, 12, 16, and 20; • (4) changes from baseline in the Pain Numerical Ranging score at Weeks 4, 8, 12, 16, and 20; • (5) change and percent change from Baseline in lesion counts (abscess count, inflammatory nodule count, AN count, and draining tunnel count); • (6) change from baseline in skin biomarkers at Week 16; • (7) change from baseline in blood biomarkers at Weeks 4, 8, 12, and 16.
This was a 16-week treatment, randomized, double-blind, proof-of-concept study designed to assess the safety and efficacy of Compound 1 compared to placebo for use in future efficacy Phase 2 trials.
Eligible subjects completed an up-to 4-week screening phase and sequentially be randomized 2:1 to one of two cohorts, treatment cohort (n=10) or placebo-control cohort (n=5), in a 16-week treatment phase followed by a 4-week observational follow-up phase. In the 16-week treatment phase, subjects randomized to the treatment group receive 250 mg Compound 1 free base in the form of a tablet administered orally once daily. The 250 mg dose was selected based on the results of an earlier oncology trial conducted with doses in excess of 1000 mg/day as a safe minimal dose from which to conduct dose escalation if required. Subjects randomized to the placebo-control group receive placebo treatment once daily (microcrystalline cellulose, mannitol, crospovidone, Opadry II red, magnesium stearate, colloidal silicon dioxide).
HiSCR, HS-PGA, Pain-NRS, and DLQI were performed to assess efficacy. Safety was assessed with the vital signs, physical examination, clinical laboratory tests, ECG, and collection of AEs.

[3] = Accumulation of Compound 1 in skin punch biopsies of HS patients; format: in vivo, human
Method: The accumulation of Compound 1 in the skin of human HS patients in the clinical study described in Example 1 was determined. […] FIG. 6 is a graph showing the concentrations of Compound 1 found in the biopsied tissues in subjects grouped according to their clinical response to Compound 1 therapy. The mean skin concentration following 16 weeks of treatment with Compound 1 was 7130 ng/mg, which is equivalent to 16.1 mM.

[4] = individual healthy male subjects
[5] = following 16 weeks of treatment, 250 mg orally once daily, skin punch biopsies

CN(C)c1cc2c(cc1Sc1nc3c(N)nccc3n1CCNCC(C)(C)C)OCO2 [Compound 1]
Cmax ([1]; read-out: Cmax, range over six subjects): 19.4 to 24.9 ng/mL
Cmax ([1]; six subjects, read-out: Cmax, median): 20.3 ng/mL
Cmax ([1]; six subjects, read-out: Cmax, median (molar)): 46 nM
AUClast [1, 4]: 51.64 ng·h/mL and 70.13 ng·h/mL and 36.82 ng·h/mL and 25.64 ng·h/mL and 45.08 ng·h/mL and 54.08 ng·h/mL
AUC∞ [1, 4]: 51.64 ng·h/mL and 85.79 ng·h/mL and 36.82 ng·h/mL and 25.64 ng·h/mL and 45.08 ng·h/mL and 54.08 ng·h/mL
likelihood of achieving HiSCR50 ([2]; beginning at 12 weeks and continuing to 16 weeks, 250 mg orally once daily, compared to control): substantially more likely to achieve HiSCR50
subjects achieving HiSCR75 ([2]; by 14 weeks, 250 mg orally once daily, no subjects in the control): 50%
subjects achieving HiSCR90 ([2]; by 16 weeks, 250 mg orally once daily, no subjects in the control): 30%
IHS4 at baseline ([2]; individual subjects of the Compound 1 arm, before treatment): 17 and 43 and 14 (2×) and 10 and 6 and 20 (2×) and 28 and 11
IHS4 at week 16 ([2]; individual subjects of the Compound 1 arm, 250 mg orally once daily for 16 weeks): 4 (2×) and 22 and 3 and 7 (2×) and 21 and 6 and 10 and 2
decrease in abscess/nodule (AN) count relative to baseline ([2]; week 16, 250 mg orally once daily, compared to control): substantially greater decrease in AN count
average decrease in HS-PGA compared to baseline ([2]; week 16, 250 mg orally once daily, control arm showed no change): 0.8
subjects showing a decrease in IHS4 score ([2]; week 16 versus baseline, Compound 1 arm (n=10)): Nine of the ten
accumulation in the skin relative to plasma ([3]; daily oral dosing at 250 mg, skin versus plasma of healthy volunteers): approximately 100,000 fold
mean skin concentration [3, 5]: 7130 ng/mg
mean skin concentration (molar equivalent) [3, 5]: 16.1 mM

Source: patent US20250288562A1, “Methods and Compositions for Treating Hidradenitis Suppurativa” (Regranion, LLC, priority 2022, published 2025)
